Series [1] in a line: AUC(0 to t) in BALB/c mouse at 5 mg/kg, po measured upto 24 hrs by LC-MS/MS analysis. In kind it is ADME, organism-based. The note with it: in vivo.
Series [2] can be described thus: Inhibition of IL-1beta release in PMA-differentiated/ LPS and nigericin stimulated human THP-1 cells pretreated with LPS for 3 hrs followed by incubation with compound for 40 mins and later stimulated with nigericin for 40 mins by ELISA. The series is classed as functional, cell-based. (ELISA stands for enzyme-linked immunosorbent assay.)
The nature of series [3]: MRT(0 to t) in BALB/c mouse at 5 mg/kg, iv measured upto 24 hrs by LC-MS/MS analysis. The series is classed as ADME, organism-based. Particulars: in vivo.
Series [4] can be described thus: Tmax in BALB/c mouse at 5 mg/kg, po measured upto 24 hrs by LC-MS/MS analysis. The series is classed as ADME, organism-based. Particulars: in vivo.
Series [5] deals with NACHT, LRR and PYD domains-containing protein 3 (Mus musculus) (UniProt Q8R4B8). The series can be described thus: Inhibition of NLRP3 inflammasome activation in LPS/nigericin stimulated mouse BMDMs assessed as effect on NLRP3 expression pretreated with LPS for 3 hrs followed by compound addition for 40 mins prior to nigericin stimulation for 40 mins by Western blotting analysis. In kind it is cell-based. Particulars: BMDM, time 80.0 min. Background: A western blot detects proteins with antibodies after separation by electrophoresis.

Series [6] deals with LX-2. Nature of the series: Cytotoxicity against human LX-2 cells at 20 uM incubated for 72 hrs by MTT assay. The note with it: lx-2, 72 h. In kind it is toxicity, cell-based. On the technique in general: Tetrazolium dyes change colour on reduction, which living cells bring about.
The test system of series [7] is THP-1. The series can be described thus: Inhibition of nigericin induced ASC oligomerization in PMA differentiated human THP-1 cells at 5 to 80 nM pretreated compound for 40 mins followed by nigericin stimulation by immunofluorescence analysis. In kind it is functional, cell-based. Particulars: dose 5-80 nM.
Series [8] addresses Cytochrome P450 2C19 (Homo sapiens, UniProt P33261). Nature of the series: Inhibition of human CYP2C19 upto 10 uM relative to control. In kind it is ADME.
The test system of series [9] is Mus musculus. The series can be described thus: Antiinflammatory activity against LPS induced septic shock in BALB/c mouse assessed as reduction in serum IL-1beta level at 25 mg/kg, ip pretreated for 1 hr followed by LPS stimulation and measured after 3 hrs by ELISA. In kind it is functional, organism-based. The note with it: time 4.0 hrs.
In series [10] the target is NACHT, LRR and PYD domains-containing protein 3 (Mus musculus) (UniProt Q8R4B8). Nature of the series: Inhibition of NLRP3 inflammasome activation in mouse BMDMs assessed as effect on TNF-alpha production at 2 to 31.25 nM pretreated with compound for 40 mins followed by LPS/ATP stimulation. The series is classed as cell-based. The note with it: BMDM, dose 2-31.25 nM.

Series [11] can be described thus: Half-life in BALB/c mouse at 5 mg/kg, po measured upto 24 hrs by LC-MS/MS analysis. In kind it is ADME, organism-based. The note with it: in vivo.
Series [12] addresses NACHT, LRR and PYD domains-containing protein 3 (Mus musculus) (UniProt Q8R4B8). Nature of the series: Inhibition of NLRP3 inflammasome activation in LPS/nigericin stimulated mouse BMDMs assessed as effect on ASC expression pretreated with LPS for 3 hrs followed by compound addition for 40 mins prior to nigericin stimulation for 40 mins by Western blotting analysis. The series is classed as cell-based. Particulars: BMDM, time 80.0 min.

The target is the same in series [13]. The series can be described thus: Inhibition of NLRP3 inflammasome activation in mouse BMDMs assessed as effect on NLRP3 expression at 2 to 31.25 nM pretreated with LPS for 3 hrs followed by compound addition for 40 mins. The note with it: BMDM, dose 2-31.25 nM. In kind it is cell-based.
For series [14] the target is unchanged. Nature of the series: Inhibition of NLRP3 inflammasome activation in LPS/nigericin stimulated mouse BMDMs assessed as reduction in IL-1beta release pretreated with LPS for 3 hrs followed by compound addition for 40 mins prior to nigericin stimulation for 40 mins by Western blotting analysis. The series is classed as cell-based. Particulars: BMDM, time 80.0 min.

For series [15], the system named is HepG2. Nature of the series: Cytotoxicity against human HepG2 cells at 5 to 20 uM incubated for 72 hrs by MTT assay. In kind it is toxicity, cell-based. Particulars: hepg2, 72 h, dose 5-20 µM.
A short description of series [16]: Half-life in BALB/c mouse at 5 mg/kg, iv measured upto 24 hrs by LC-MS/MS analysis. In kind it is ADME, organism-based. The note with it: in vivo.
Series [17] concerns the target NACHT, LRR and PYD domains-containing protein 3 (Mus musculus) (UniProt Q8R4B8). The series can be described thus: Inhibition of NLRP3 inflammasome activation in mouse BMDMs assessed as effect on NLRP3 expression at 2 to 31.25 nM pretreated with compound for 40 mins followed by LPS/nigericin stimulation. The series is classed as cell-based. Particulars: BMDM, dose 2-31.25 nM.

Series [18] concerns the target Cytochrome P450 2C9 (Homo sapiens, UniProt P11712). Nature of the series: Inhibition of human CYP2C9 upto 10 uM relative to control. The series is classed as ADME.
Series [19] deals with T1, Cytochrome P450 1A2 (Homo sapiens, UniProt P05177).
T1 sequence (P05177 whole entry): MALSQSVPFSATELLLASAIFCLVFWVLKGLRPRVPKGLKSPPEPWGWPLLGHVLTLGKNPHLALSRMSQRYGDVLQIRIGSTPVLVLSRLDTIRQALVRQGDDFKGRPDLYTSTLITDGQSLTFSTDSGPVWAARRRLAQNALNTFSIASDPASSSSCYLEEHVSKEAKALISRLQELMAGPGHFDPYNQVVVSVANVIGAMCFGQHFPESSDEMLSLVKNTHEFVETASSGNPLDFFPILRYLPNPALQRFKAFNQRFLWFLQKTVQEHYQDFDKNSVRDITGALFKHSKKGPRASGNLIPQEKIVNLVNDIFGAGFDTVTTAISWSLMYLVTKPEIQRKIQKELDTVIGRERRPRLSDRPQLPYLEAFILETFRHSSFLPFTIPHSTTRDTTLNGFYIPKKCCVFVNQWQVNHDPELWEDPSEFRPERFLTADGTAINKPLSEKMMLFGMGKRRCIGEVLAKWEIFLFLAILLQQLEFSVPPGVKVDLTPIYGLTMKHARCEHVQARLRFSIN
The series can be described thus: Inhibition of human CYP1A2 upto 10 uM relative to control. The series is classed as ADME.

The target of series [20] is NACHT, LRR and PYD domains-containing protein 3 (Mus musculus) (UniProt Q8R4B8). The series can be described thus: Inhibition of NLRP3 inflammasome activation in mouse BMDMs assessed as effect on pro-IL-1beta expression at 2 to 31.25 nM pretreated with compound for 40 mins followed by LPS/nigericin stimulation. In kind it is cell-based. The note with it: BMDM, dose 2-31.25 nM.

The target of series [21] is hERG (KCNH2) (Homo sapiens, UniProt Q12809). Nature of the series: Inhibition of human ERG at 20 uM relative to control.
Series [22] in a line: Metabolic stability in human liver microsomes assessed as half life at 10 uM […] in presence of NADPH by LC-MS/MS analysis. In kind it is ADME, Microsome.
Series [23] deals with T2, Interferon-inducible protein AIM2 (Mus musculus) (UniProt Q91VJ1).
T2 sequence (whole entry): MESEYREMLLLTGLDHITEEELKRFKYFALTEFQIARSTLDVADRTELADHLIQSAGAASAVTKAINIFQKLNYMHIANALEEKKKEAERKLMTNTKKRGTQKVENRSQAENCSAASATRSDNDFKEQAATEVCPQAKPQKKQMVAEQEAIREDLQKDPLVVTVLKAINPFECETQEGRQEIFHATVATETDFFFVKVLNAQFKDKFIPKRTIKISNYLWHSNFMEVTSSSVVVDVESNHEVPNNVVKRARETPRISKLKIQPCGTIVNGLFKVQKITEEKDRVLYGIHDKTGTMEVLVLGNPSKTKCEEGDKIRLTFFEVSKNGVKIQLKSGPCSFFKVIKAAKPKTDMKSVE
The series can be described thus: Inhibition of poly dA:dT stimulated AIM2 inflammasome activation in mouse BMDMs assessed as reduction in IL-1beta secretion at 0.1 to 10 uM pretreated with LPS for 3 hrs followed by compound addition for 40 mins prior to poly dA:dT stimulation for 6 hrs by ELISA. The note with it: BMDM, dose 0.1-10 µM, time 400.0 min. In kind it is cell-based.

The subject of series [24] is Mus musculus. The series can be described thus: Inhibition of MSU crystal induced peritonitis in BALB/c mouse assessed as reduction in neutrophil recruitment at 50 to 100 mg/kg, ip pretreated with LPS for 3 hrs followed by compound addition prior to MSU stimulation for 6 hrs by ELISA. The series is classed as functional, organism-based. Particulars: dose 50-100 mg/kg.

pIC50: −log10 of the molar value. Active and inactive are the calls of the source. The calls are words filed in the database; no cut-off is given here. A value given as a limit tells only on which side of the number the result lay.

Experimental findings from ChEMBL document CHEMBL5584341, “Discovery of Potent, Specific, and Orally Available NLRP3 Inflammasome Inhibitors Based on Pyridazine Scaffolds for the Treatment of Septic Shock and Peritonitis” (J Med Chem, 2024) are described below.

Sequence of NACHT, LRR and PYD domains-containing protein 3 (Mus musculus) (Q8R4B8 whole entry, the tested form may be a part): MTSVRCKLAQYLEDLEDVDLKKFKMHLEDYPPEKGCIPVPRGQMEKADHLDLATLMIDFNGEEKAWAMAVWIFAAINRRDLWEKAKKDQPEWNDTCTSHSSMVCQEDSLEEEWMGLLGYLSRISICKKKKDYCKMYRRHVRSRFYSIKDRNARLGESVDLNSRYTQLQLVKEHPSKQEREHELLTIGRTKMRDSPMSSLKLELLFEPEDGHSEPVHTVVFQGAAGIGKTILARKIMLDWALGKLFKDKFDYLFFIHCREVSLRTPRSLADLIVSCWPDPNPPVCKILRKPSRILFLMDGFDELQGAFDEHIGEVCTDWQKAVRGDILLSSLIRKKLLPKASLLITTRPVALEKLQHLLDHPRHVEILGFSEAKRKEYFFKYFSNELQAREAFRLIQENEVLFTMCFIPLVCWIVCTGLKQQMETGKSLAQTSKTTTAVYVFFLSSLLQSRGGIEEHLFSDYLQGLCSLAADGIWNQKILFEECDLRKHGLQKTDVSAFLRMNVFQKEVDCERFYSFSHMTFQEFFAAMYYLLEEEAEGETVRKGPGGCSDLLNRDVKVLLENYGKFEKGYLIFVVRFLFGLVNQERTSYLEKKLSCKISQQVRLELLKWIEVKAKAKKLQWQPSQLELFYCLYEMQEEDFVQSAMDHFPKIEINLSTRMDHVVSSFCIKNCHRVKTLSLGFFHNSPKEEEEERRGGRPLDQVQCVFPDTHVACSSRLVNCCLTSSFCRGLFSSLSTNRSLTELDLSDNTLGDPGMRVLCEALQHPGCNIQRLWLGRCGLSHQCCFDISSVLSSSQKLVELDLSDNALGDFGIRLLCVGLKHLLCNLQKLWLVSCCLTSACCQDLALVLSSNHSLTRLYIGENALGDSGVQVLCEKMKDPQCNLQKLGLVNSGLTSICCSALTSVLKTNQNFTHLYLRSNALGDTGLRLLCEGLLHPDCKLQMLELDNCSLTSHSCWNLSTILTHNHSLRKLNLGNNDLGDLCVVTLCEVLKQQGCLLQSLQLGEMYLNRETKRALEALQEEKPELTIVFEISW
Sequence of Cytochrome P450 2C9 (P11712 whole entry): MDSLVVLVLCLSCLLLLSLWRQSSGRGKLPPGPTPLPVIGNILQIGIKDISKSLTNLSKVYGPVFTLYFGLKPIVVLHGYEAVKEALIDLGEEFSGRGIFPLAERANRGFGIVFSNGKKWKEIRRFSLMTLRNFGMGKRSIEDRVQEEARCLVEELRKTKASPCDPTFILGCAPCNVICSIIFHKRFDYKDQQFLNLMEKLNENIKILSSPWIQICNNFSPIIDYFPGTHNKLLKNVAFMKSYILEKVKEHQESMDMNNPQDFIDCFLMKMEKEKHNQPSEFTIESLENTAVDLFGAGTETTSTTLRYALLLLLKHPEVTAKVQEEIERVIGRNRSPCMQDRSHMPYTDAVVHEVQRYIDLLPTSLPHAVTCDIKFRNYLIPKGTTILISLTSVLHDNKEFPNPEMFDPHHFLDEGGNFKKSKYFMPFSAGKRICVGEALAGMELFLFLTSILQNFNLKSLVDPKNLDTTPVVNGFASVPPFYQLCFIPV
Sequence of hERG (KCNH2) (Q12809 whole entry): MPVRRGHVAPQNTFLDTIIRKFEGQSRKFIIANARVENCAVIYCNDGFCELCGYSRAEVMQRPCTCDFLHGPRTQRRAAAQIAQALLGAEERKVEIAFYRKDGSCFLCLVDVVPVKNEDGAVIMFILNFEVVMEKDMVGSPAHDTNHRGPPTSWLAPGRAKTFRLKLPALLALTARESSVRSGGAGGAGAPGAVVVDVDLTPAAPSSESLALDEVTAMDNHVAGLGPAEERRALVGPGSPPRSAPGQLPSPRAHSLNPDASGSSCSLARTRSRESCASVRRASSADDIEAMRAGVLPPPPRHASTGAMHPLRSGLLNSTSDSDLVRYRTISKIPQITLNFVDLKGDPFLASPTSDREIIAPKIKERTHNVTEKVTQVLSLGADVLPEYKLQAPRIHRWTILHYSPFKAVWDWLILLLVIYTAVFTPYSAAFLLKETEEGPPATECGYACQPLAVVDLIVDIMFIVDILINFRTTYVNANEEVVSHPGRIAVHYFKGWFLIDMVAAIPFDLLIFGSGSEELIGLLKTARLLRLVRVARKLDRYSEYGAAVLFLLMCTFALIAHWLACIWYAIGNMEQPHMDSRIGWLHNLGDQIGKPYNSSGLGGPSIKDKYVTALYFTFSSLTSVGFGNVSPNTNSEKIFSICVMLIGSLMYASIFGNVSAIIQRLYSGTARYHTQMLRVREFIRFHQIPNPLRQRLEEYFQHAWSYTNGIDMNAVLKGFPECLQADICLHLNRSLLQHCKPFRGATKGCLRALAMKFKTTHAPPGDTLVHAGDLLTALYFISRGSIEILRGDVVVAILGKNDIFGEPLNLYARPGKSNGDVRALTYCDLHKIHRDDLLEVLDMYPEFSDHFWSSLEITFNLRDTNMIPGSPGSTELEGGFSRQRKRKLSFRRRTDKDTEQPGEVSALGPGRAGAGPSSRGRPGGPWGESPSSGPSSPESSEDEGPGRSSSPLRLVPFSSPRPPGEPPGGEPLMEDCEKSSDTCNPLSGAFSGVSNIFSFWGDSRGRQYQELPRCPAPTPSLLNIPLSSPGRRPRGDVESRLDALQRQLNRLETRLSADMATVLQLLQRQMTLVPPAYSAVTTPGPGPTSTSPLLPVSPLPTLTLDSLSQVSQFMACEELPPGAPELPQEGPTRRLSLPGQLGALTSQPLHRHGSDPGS
Sequence of Cytochrome P450 2C19 (P33261 whole entry): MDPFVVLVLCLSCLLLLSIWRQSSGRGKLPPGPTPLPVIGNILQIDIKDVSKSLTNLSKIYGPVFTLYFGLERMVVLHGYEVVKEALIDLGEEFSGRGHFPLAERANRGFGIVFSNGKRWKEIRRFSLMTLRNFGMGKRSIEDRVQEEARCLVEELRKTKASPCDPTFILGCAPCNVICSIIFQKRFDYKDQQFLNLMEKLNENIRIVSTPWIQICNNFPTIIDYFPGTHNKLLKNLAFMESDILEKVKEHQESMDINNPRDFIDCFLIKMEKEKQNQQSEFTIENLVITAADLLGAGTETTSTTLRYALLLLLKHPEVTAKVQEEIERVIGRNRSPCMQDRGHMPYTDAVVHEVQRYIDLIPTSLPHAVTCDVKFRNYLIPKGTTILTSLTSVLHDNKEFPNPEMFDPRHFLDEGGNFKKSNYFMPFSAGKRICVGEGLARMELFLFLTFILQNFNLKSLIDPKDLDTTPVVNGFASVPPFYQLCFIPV

Take `OCCN1CCC[C@@H](Nc2nnc(-c3ccc4occc4c3O)c3c2C2CCC3CC2)C1`: the AUC(0-t) – broadly, exposure summed from dosing to a finite time, without extrapolation to infinity – at 24 h in series [1] is 5940 ng·h/mL. Besides, the pIC50 – broadly, −log10 of the IC50, conventionally taken in molar units – in series [2] was 8.52. The MRT last (as a rule, a mean duration of stay, worked out from the concentration-time curve) at 24 h in series [3] was 4.1 h. Moreover, the Tmax (in general, the time from dosing to the highest level) in [4] stood at 1.83 h. Further, the inhibition result in [5], in series [10], in series [12], in series [13], in series [17] and in series [20] was “inactive” in each case. The inhibition (in general, the change of the read-out against control, counted positive when it falls) in series [23] is “inactive”. Also, the results for the Activity result in series [6] and in series [15] were “Toxic” and “Non-Toxic”, respectively. For the same compound, the inhibition result in series [7] and in series [24] was “Active” in each case. In addition, the “inhibition (INH)” value in series [8], in series [18] and in series [19] was “Not Active” each time. Also, the result in [9] was Active. In addition, the half-life (usually how long it takes for the measured level to halve) is 4.74 h in series [11] and 3.51 h in series [16]. The inhibition entry in series [14] was “Dose-Dependent Effect”. The same compound displayed an inhibition at 20 µM in series [21] of 49.1%. In addition, the half-life at 10 µM in series [22] was above 2 h.
